Data from paper PMC5516028, “Molecular tools for GABAA receptors: High affinity ligands for β1-containing subtypes” (Scientific Reports, 2017).

Tests used:
Type in all cases: cell-based
[1] = target: T1, α4β3γ2 GABAA receptors (Rattus norvegicus, UniProt P28471+P63079); experiment: Two electrode voltage clamp in Xenopus laevis oocytes, α4β3γ2
T1 construct: expressed in transfected cells; host or cells: Xenopus laevis oocytes, mRNA injected
Text: (§1) cDNA’s of rat GABAA receptor subunits α1, α4, β1, β2, β3 and γ2S were cloned as described. cDNAs of the rat subunits α2, α3 and α5 were gifts from P. Malherbe, that of α6 and γ1 were gifts of P. Seeburg and that of δ was a gift of C. Czajkowski. The mutants were constructed using the Q5 Site-Directed Mutagenesis Kit (New England Biolabs) following manufacturer’s instruction. We used the wild-type rat β3-pCI vector as template and the primers […] and […] resulting in a substitution of amino acid N41 (AAC) to R (AGG). We used the wild-type rat β1-pCI vector as template and the primers […] and […] resulting in a substitution of amino acid R41 (CGG) to N (AAC). The mutated subunits were confirmed by sequencing.
(§2) In vitro transcription of mRNA was based on the cDNA expression vectors encoding for rat GABAA receptor subunits α1–6, β1-3, γ1,2, δ and the two β mutants (β1R41N and β3N41R)[40]. After linearizing the cDNA vectors with appropriate restriction endonucleases, the cDNA was purified and concentrated with the DNA Clean and Contentrator ^TM Kit (Zymoresearch, Catalog No. D4005). Capped transcripts of the purified cDNA were produced using the mMESSAGE mMACHINE® T7 transcription kit (Ambion, TX, USA) and polyadenylated using the Ambion PolyA tailing kit (Ambion). After transcription and polyadenylation the RNA was purified with the MEGAclear ^TM Kit (Ambion, Catalog No. AM1908). The final RNA concentration was measured on NanoDrop® ND-1000 and finally diluted and stored in diethylpyrocarbonate-treated water at −80 °C. For the microinjection, the RNA of αβ receptor combinations was mixed at 1:1 ratio (which leads to αβ receptors that consist of predominantly 3 beta and 2 alpha subunits[27]), for αkβlγm (k = 1–3, l = 1, 3, m = 1, 2) receptors at 1:1:5 ratio, for αkβ3γ2 (k = 4–6) and αkβlδ (k = 1, 4 and 6, l = 1, 3) receptor combinations at 3:1:5 ratio.
(§3) Mature female Xenopus laevis (Nasco, WI) were anesthetized in a bath of ice-cold 0.17% Tricain (Ethyl-m-aminobenzoate, Sigma, MO) before decapitation in full accordance with all rules of the Austrian animal protection law (see http://www.ris.bka.gv.at/Dokumente/BgblAuth/BGBLA_2012_I_114/BGBLA_2012_I_114.pdf) and the Austrian animal experiment by-laws (see https://www.ris.bka.gv.at/Dokumente/BgblAuth/BGBLA_2012_II_522/BGBLA_2012_II_522.pdf) which implement the European Directive 2010/63/EU (see http://eur-lex.europa.eu/LexUriServ/LexUriServ.do?uri=OJ:L:2010:276:0033:0079:en:PDF) into the Austrian law (all information accessed on July 27, 2016). The frog’s ovaries were transferred to ND96 medium (96 mM NaCl, 2 mM KCl, 1 mM MgCl2, 5 mM HEPES; pH 7.5). Stage 5–6 oocytes with the follicle cell layer around them were roughly dissected with forceps into packages of 10–15 cells and washed in Ca^2+-free ND96 medium. Cells were then digested with collagenase (type IA, Sigma, NO, 1 mg/mL ND96) at 18 °C shaking at 30 rpm for 30–60 minutes and gently defolliculated with the aid of a glass pipette with appropriate tip diameter and a platinum loop. Defolliculated cells were stored at 18 °C for at least 6 hours in ND96 solution containing penicillin G (10000 IU/100 mL) and streptomycin (10 mg/100 mL) in order to preselect and exclude damaged cells from further treatment. Healthy defolliculated oocytes were injected with an aqueous solution of mRNA. A total of 4.5 ng of mRNA per oocyte was injected with a Nanoject II (Drummond). After injection of mRNA, oocytes were incubated at 18 °C (ND96 + antibiotic) for 2–3 days for αβ receptors and for 3–4 days for αβγ or αβδ receptors before recording. When cells were measured at later time points, oocytes were stored at +4 °C instead of 18 °C.
(§4) For electrophysiological recordings, oocytes were placed on a nylon-grid in a bath of Ca^2+-containing NDE solution medium [96 mM NaCl, 5 mM HEPES-NaOH (pH 7.5), 2 mM KCl, 1 mM MgCl2, 1.8 mM CaCl2].

[2] = target: T2, α1β3γ2 GABAA receptors (Rattus norvegicus, UniProt P62813+P63079); experiment: Two electrode voltage clamp in Xenopus laevis oocytes, α1β3γ2
T2 construct: expressed in transfected cells; host or cells: Xenopus laevis oocytes, mRNA injected
Text: as §1, §2, §3, §4

[3] = target: T3, α2β3γ2 GABAA receptors (Rattus norvegicus, UniProt P23576+P63079); experiment: Two electrode voltage clamp in Xenopus laevis oocytes, α2β3γ2
T3 construct: expressed in transfected cells; host or cells: Xenopus laevis oocytes, mRNA injected
Text: as §1, §2, §3, §4

[4] = target: T4, α5β3γ2 GABAA receptors (Rattus norvegicus, UniProt P19969+P63079); experiment: Two electrode voltage clamp in Xenopus laevis oocytes, α5β3γ2
T4 construct: expressed in transfected cells; host or cells: Xenopus laevis oocytes, mRNA injected
Text: as §1, §2, §3, §4

T2 sequence (P62813 28-455): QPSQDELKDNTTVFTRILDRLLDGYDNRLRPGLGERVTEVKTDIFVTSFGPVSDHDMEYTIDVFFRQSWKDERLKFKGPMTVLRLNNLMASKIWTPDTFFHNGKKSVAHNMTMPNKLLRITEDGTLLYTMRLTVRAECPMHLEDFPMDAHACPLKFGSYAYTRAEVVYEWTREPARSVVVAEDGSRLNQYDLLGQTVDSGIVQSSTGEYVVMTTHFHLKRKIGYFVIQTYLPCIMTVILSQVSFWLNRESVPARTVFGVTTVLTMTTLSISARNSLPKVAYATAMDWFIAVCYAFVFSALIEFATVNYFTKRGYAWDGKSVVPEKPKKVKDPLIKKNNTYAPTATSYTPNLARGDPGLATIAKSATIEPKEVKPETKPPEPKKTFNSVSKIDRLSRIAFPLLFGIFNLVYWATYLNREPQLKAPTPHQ
T2 sequence (P63079 26-473): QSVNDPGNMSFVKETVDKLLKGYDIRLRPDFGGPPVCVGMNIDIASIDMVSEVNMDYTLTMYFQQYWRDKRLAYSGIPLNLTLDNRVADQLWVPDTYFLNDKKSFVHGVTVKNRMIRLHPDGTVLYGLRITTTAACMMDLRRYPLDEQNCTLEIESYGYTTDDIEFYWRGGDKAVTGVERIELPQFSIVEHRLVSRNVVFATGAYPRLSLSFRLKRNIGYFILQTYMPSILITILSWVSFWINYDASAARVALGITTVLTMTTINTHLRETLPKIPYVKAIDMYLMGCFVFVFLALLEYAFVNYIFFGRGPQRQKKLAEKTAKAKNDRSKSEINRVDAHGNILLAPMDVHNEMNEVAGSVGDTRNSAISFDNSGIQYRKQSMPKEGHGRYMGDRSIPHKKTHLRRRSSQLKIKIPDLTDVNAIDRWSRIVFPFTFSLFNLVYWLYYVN
T2 sequence (P18508 39-466 partner): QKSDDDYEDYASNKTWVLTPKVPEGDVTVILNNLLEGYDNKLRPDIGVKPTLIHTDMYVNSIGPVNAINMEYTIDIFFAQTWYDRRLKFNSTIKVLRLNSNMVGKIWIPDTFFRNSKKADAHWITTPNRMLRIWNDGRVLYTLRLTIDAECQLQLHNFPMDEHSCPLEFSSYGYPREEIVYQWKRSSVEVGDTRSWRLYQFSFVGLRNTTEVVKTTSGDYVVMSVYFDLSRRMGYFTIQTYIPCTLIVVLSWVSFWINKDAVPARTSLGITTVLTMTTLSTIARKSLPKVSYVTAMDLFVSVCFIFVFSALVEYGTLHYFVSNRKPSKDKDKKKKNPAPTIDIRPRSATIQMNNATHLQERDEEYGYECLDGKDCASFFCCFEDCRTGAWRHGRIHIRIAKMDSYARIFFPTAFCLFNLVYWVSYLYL
T3 sequence (P23576 29-451): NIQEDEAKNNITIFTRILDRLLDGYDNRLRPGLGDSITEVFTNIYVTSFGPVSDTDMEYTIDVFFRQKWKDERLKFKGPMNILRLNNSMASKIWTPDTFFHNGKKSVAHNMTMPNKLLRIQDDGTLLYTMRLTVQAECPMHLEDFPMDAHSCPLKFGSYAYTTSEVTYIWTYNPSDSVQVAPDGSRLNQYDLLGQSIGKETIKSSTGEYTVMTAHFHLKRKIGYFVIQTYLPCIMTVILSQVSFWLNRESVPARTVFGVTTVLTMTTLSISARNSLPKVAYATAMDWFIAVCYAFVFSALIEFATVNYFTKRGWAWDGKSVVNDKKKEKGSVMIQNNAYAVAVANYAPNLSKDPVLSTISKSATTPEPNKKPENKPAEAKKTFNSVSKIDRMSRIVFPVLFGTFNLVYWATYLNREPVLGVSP
T3 sequence (P63079 26-473): as the sequence (P63079 26-473) above
T3 sequence (P18508 39-466 partner): as the sequence (P18508 39-466 partner) above
T1 sequence (P28471 36-552): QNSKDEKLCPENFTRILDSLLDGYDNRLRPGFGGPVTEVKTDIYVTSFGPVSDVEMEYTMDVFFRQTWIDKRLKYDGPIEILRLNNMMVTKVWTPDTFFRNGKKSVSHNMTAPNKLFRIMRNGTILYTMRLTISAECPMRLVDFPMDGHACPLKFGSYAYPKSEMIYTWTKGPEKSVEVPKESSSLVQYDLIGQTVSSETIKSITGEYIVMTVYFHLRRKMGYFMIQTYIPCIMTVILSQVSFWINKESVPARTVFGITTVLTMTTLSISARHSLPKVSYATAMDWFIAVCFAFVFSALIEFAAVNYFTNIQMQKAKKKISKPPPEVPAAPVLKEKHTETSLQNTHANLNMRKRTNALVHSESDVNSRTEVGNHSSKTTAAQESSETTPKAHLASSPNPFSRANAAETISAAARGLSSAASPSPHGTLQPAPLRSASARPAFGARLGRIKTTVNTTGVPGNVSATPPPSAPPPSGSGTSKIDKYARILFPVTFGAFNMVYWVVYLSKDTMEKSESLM
T1 sequence (P63079 26-473): as the sequence (P63079 26-473) above
T1 sequence (P18508 39-466 partner): as the sequence (P18508 39-466 partner) above
T4 sequence (P19969 32-464 limits assumed): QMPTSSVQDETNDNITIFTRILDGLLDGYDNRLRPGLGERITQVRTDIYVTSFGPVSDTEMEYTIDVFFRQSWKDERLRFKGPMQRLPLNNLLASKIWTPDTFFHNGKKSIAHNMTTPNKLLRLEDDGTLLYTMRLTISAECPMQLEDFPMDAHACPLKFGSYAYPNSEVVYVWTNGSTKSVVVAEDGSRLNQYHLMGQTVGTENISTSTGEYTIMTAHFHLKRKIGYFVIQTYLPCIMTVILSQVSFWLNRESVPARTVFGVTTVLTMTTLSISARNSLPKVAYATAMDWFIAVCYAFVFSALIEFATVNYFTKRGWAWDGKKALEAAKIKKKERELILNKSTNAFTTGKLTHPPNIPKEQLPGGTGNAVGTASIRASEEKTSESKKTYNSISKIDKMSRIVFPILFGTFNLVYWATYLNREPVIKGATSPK
T4 sequence (P63079 26-473): as the sequence (P63079 26-473) above
T4 sequence (P18508 39-466 partner): as the sequence (P18508 39-466 partner) above

EC50 [1]: 13.4 µM
activity at 0.001 µM ([1]; read-out: efficacy, % of control current (GABA EC3-5 = 100%), α4β3γ2, 1 nM): 101 ± 1.8%
activity at 0.003 µM ([1]; read-out: efficacy, % of control current (GABA EC3-5 = 100%), α4β3γ2, 3 nM): 96.3 ± 8%
activity at 0.01 µM ([1]; read-out: efficacy, % of control current (GABA EC3-5 = 100%), α4β3γ2, 10 nM): 100 ± 2.2%
activity at 0.03 µM ([1]; read-out: efficacy, % of control current (GABA EC3-5 = 100%), α4β3γ2, 30 nM): 104 ± 4.4%
activity at 0.1 µM ([1]; read-out: efficacy, % of control current (GABA EC3-5 = 100%), α4β3γ2, 100 nM): 120 ± 10.1%
activity at 1 µM ([1]; read-out: efficacy, % of control current (GABA EC3-5 = 100%), α4β3γ2, 1 µM): 162 ± 16.3%
activity at 10 µM ([1]; read-out: efficacy, % of control current (GABA EC3-5 = 100%), α4β3γ2, 10 µM): 267 ± 16.8%
activity at 30 µM ([1]; read-out: efficacy, % of control current (GABA EC3-5 = 100%), α4β3γ2, 30 µM): 315 ± 30.1%
EC50 ([2]; co-applied with GABA EC3-5, read-out: EC50): 4.4 µM
activity at 0.001 µM ([2]; read-out: efficacy, % of control current (GABA EC3-5 = 100%), 1 nM): 100%
activity at 0.01 µM ([2]; read-out: efficacy, % of control current (GABA EC3-5 = 100%), 10 nM): 108 ± 4%
activity at 0.1 µM ([2]; read-out: efficacy, % of control current (GABA EC3-5 = 100%), 100 nM): 108 ± 4%
activity at 0.3 µM ([2]; read-out: efficacy, % of control current (GABA EC3-5 = 100%), 300 nM): 128 ± 5.6%
activity at 1 µM ([2]; read-out: efficacy, % of control current (GABA EC3-5 = 100%), 1 µM): 156 ± 19%
activity at 10 µM ([2]; read-out: efficacy, % of control current (GABA EC3-5 = 100%), 10 µM): 423 ± 106%
activity at 30 µM ([2]; read-out: efficacy, % of control current (GABA EC3-5 = 100%), 30 µM): 534 ± 136%
Emax ([2]; read-out: maximum efficacy / modulatory effects up to): ~600%
EC50 [3]: 5.5 µM
activity at 0.001 µM ([3]; read-out: efficacy, % of control current (GABA EC3-5 = 100%), α2β3γ2, 1 nM): 100%
activity at 0.01 µM ([3]; read-out: efficacy, % of control current (GABA EC3-5 = 100%), α2β3γ2, 10 nM): 108 ± 4.2%
activity at 0.1 µM ([3]; read-out: efficacy, % of control current (GABA EC3-5 = 100%), α2β3γ2, 100 nM): 111 ± 2.3%
activity at 0.3 µM ([3]; read-out: efficacy, % of control current (GABA EC3-5 = 100%), α2β3γ2, 300 nM): 134%
activity at 1 µM ([3]; read-out: efficacy, % of control current (GABA EC3-5 = 100%), α2β3γ2, 1 µM): 137 ± 5.5%
activity at 10 µM ([3]; read-out: efficacy, % of control current (GABA EC3-5 = 100%), α2β3γ2, 10 µM): 470 ± 50%
activity at 30 µM ([3]; read-out: efficacy, % of control current (GABA EC3-5 = 100%), α2β3γ2, 30 µM): 580%
EC50 [4]: 6.4 µM
Compound: Cc1ccc(-n2nc3c4cc(Cl)ccc4[nH]cc-3c2=O)cc1 [Compound 2, 8-Chloro-2-(4-methylphenyl)-2H-pyrazolo[4,3-c]quinolin-3(5H)-one]
